In ChEMBL document CHEMBL1909046, “DrugMatrix in vitro pharmacology data”:

Experiments:
[1] = target: T1, 3-hydroxy-3-methylglutaryl-coenzyme A reductase (Homo sapiens, UniProt P04035); set-up: species or system Escherichia coli;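 also: enzyme inhibition assay of HMG-CoA reductase using radiolabeled [14C]HMG-CoA as substrate; in other assays of this panel Not Active means under 50% inhibition at 10 µM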
T1 sequence (P04035 whole entry): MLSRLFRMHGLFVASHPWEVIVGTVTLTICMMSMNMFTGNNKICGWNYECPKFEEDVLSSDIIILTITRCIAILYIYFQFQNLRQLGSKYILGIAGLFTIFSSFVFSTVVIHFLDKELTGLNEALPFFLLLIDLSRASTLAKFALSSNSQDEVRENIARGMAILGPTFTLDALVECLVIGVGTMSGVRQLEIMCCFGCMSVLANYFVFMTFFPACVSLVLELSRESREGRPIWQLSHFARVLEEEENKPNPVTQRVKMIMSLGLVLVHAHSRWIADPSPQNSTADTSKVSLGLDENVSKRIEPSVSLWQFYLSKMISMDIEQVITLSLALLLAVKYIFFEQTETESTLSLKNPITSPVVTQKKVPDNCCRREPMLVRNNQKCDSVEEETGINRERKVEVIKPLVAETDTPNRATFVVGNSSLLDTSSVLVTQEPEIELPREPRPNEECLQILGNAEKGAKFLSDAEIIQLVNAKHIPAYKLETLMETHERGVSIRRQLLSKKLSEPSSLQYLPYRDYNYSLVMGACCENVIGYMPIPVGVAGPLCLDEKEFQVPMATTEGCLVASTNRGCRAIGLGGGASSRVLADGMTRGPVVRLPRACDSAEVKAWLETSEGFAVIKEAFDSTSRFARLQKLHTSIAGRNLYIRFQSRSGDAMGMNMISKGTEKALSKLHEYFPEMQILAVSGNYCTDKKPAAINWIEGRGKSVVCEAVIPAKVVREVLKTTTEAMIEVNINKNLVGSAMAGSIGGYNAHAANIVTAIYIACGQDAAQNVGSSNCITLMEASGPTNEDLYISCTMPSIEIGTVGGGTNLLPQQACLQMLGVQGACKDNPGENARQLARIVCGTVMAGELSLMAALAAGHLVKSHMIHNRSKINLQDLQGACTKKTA

[2] = DRUGMATRIX: Serotonin (5-Hydroxytryptamine) 5-HT3 radioligand binding (ligand: [3H] GR-65630); assay type: cell membranes, Membrane; conditions: hek293; Not Active = under 50% inhibition at 10 µM
[3] = DRUGMATRIX: beta-Lactamase enzyme inhibition (substrate: Nitrocefin); set-up: species or system Bacillus cereus; conditions: Not Active = under 50% inhibition at 10 µM
[4] = target: Matrix metalloproteinase-9 (Homo sapiens, UniProt P14780); experiment: biochemical; assay type: cell-based;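 also: inhibition of isolated MMP-9 enzyme activity toward a synthetic peptide substrate, from the DrugMatrix protease screening panel; in other assays of this panel Not Active means under 50% inhibition at 10 µM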
Endothelin-1 receptor = target: T2, Endothelin-1 receptor (Homo sapiens, UniProt P25101); assay type: cell membranes, CHO-K1, Membrane; conditions: cho-k1; also: in other assays of this panel Not Active means under 50% inhibition at 10 µM
T2 sequence (P25101 whole entry): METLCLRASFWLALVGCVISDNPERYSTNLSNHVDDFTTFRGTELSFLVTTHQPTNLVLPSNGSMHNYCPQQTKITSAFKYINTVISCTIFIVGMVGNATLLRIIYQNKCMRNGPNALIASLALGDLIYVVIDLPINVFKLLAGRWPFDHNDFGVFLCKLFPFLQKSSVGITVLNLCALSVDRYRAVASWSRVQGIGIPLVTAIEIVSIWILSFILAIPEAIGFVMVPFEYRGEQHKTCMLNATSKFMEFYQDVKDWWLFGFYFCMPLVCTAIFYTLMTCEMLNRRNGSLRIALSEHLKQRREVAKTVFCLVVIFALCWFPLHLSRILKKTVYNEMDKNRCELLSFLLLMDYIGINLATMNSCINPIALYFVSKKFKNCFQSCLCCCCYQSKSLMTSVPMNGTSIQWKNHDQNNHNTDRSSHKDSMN

Adenosine receptor A2a = Adenosine receptor A2a (Homo sapiens, UniProt P29274); experiment: DRUGMATRIX: Adenosine A2A radioligand binding (ligand: […]); assay type: cell membranes, Membrane; conditions: hek293; Not Active = under 50% inhibition at 10 µM
[5] = DRUGMATRIX: Nicotinic Acetylcholine radioligand binding (ligand: [125I] Epibatidine); assay type: cell membranes, Membrane; conditions: imr-32; Not Active = under 50% inhibition at 10 µM
[6] = DRUGMATRIX: Sodium/nucleoside co-transporter radioligand binding (ligand: nitrobenzylthioinosine); assay type: cell membranes, Cavia porcellus, Dunkin-Hartley, Cerebral cortex, Membrane; conditions: Not Active = under 50% inhibition at 10 µM

Matrix metalloproteinase-9, sequence (P14780 whole entry): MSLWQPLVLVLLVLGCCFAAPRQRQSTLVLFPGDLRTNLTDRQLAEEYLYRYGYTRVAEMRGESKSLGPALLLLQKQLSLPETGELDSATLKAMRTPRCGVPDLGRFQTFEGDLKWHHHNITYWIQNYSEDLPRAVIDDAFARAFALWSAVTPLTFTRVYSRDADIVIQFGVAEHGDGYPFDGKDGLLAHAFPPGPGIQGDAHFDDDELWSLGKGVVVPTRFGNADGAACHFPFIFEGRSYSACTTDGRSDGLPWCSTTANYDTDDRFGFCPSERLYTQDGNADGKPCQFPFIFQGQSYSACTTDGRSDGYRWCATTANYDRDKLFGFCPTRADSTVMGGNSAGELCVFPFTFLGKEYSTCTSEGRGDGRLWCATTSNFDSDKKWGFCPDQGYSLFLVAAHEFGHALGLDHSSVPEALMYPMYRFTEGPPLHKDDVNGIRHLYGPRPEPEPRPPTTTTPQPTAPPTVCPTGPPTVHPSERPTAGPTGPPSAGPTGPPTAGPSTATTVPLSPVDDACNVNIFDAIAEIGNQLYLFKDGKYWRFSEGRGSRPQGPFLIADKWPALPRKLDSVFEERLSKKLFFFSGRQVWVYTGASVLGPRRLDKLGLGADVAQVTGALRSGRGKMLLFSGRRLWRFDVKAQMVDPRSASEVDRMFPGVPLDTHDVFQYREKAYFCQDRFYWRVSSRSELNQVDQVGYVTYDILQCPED
Adenosine receptor A2a, sequence (P29274 whole entry): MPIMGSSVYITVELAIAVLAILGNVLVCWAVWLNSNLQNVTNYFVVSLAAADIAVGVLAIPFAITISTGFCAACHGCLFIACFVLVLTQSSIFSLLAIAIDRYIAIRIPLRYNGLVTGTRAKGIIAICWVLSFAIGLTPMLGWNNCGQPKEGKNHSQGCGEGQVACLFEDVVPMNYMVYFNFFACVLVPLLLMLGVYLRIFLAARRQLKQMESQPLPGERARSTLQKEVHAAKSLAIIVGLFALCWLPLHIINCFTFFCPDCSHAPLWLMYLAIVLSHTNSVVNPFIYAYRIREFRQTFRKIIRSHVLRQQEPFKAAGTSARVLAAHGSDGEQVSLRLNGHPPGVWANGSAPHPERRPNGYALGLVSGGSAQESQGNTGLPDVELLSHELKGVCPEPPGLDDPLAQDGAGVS

O=C1CC[C@@H](N2C(=O)c3ccccc3C2=O)C(=O)N1
Not Active: IC50 [1] | IC50 [2] | Ki [2] | IC50 [3] | Ki [3] | IC50 [4] | IC50 (Endothelin-1 receptor) | IC50 (Adenosine receptor A2a) | IC50 [5] | Ki [5] | IC50 [6] | Ki [6]
